Consider two molecules from ChEMBL document CHEMBL4673225, “Highly Selective PTK2 Proteolysis Targeting Chimeras to Probe Focal Adhesion Kinase Scaffolding Functions” (J Med Chem, 2019).

The target of test [1] is von Hippel-Lindau disease tumor suppressor/Focal adhesion kinase 1 (Homo sapiens, UniProt Q05397+P40337). The test can be described thus: Protac activity at VHL/PTK2 in human A549 cells assessed as induction of PTK2 degradation at 1 to 100000 nM incubated for 18 hrs by protein capillary electrophoresis method. Type of test: cell-based. To be noted: dose 1-100000 nM.
The test system of a further test is HepG2. Kind of test: cells. To be noted: Homo sapiens, HepG2, 144 h, read-out: pIC50 (converted).
The next test relates to SNU-423. The test can be described thus: cells. To be noted: Homo sapiens, SNU-423, 144 h, read-out: pIC50 (converted).
The test system of the next test is SNU-387. The test can be described thus: cells. To be noted: Homo sapiens, SNU-387, 144 h, read-out: pIC50 (converted).
The next test concerns Huh-7. Kind of test: cells. To be noted: Homo sapiens, Huh-7, 144 h, read-out: pIC50 (converted).
The next test concerns HLE. The test can be described thus: cells. To be noted: Homo sapiens, 144 h, read-out: pIC50 (converted).
For the next test, the system named is SNU-398. The test can be described thus: cells. To be noted: Homo sapiens, SNU-398, 144 h, read-out: pIC50 (converted).
Test [2] in a line: cells. To be noted: Homo sapiens, HuH-1, 144 h, read-out: pIC50 (converted).
Description: Antiproliferative activity against human HuH-1 cells incubated for 6 days by CellTiter-Glo luminescent cell viability assay
Another test relates to SK-HEP1. Kind of test: cells. To be noted: Homo sapiens, SK-HEP1, 144 h, read-out: pIC50 (converted).
Test [3] in a line: cells. To be noted: Homo sapiens, Hep3B, 144 h, read-out: pIC50 (converted).
Description: Antiproliferative activity against human Hep3B2.1-7 cells incubated for 6 days by CellTiter-Glo luminescent cell viability assay
Another test deals with HuCCT-1. The test can be described thus: cells. To be noted: Homo sapiens, HuCCT-1, 144 h, read-out: pIC50 (converted).
Test [4] is described as follows: cells. To be noted: Homo sapiens, HLF1, 144 h, read-out: pIC50 (converted).
Description: Antiproliferative activity against human HLF1 cells incubated for 6 days by CellTiter-Glo luminescent cell viability assay

The source made the active and inactive calls. The rule behind the calls is not given here.

Chain of von Hippel-Lindau disease tumor suppressor/Focal adhesion kinase 1 (P40337 whole entry partner): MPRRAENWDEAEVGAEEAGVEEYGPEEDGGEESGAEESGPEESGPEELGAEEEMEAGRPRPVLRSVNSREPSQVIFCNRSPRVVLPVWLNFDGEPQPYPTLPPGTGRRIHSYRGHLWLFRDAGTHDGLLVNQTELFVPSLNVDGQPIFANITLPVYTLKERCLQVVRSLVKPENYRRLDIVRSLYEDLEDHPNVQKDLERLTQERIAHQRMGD
Chain of von Hippel-Lindau disease tumor suppressor/Focal adhesion kinase 1 (Q05397 2-1052 limits assumed): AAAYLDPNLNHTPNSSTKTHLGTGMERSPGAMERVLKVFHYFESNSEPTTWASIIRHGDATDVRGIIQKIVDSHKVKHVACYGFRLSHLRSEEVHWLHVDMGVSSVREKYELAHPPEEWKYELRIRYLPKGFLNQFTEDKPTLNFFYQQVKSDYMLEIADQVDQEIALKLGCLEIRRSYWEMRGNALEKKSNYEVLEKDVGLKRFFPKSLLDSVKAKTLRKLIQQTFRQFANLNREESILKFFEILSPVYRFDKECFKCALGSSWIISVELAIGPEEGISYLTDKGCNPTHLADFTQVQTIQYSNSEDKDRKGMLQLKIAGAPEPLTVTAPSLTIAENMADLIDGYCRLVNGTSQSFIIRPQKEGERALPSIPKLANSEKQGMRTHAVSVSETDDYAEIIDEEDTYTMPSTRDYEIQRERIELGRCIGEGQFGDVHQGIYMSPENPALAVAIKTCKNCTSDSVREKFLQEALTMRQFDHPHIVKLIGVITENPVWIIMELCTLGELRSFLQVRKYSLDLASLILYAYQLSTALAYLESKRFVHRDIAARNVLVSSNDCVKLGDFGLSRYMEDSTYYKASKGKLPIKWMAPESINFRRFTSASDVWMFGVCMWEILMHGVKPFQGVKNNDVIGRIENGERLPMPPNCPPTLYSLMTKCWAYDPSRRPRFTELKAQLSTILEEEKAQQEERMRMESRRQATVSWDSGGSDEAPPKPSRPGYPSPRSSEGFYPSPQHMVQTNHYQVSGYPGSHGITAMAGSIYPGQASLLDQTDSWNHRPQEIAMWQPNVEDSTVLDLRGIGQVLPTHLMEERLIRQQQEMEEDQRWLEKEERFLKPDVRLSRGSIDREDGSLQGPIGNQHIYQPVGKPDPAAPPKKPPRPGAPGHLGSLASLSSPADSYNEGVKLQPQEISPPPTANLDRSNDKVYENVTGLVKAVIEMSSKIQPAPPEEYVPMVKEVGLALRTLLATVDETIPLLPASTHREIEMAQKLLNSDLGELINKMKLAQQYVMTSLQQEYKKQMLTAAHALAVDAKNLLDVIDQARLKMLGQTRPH
Description for HLE: Antiproliferative activity against human HLE cells incubated for 6 days by CellTiter-Glo luminescent cell viability assay
Description for HepG2: Antiproliferative activity against human HepG2 cells incubated for 6 days by CellTiter-Glo luminescent cell viability assay
Description for HuCCT-1: Antiproliferative activity against human HuCCT-1 cells incubated for 6 days by CellTiter-Glo luminescent cell viability assay
Description for Huh-7: Antiproliferative activity against human Huh-7 cells incubated for 6 days by CellTiter-Glo luminescent cell viability assay
Description for SK-HEP1: Antiproliferative activity against human SK-HEP1 cells incubated for 6 days by CellTiter-Glo luminescent cell viability assay
Description for SNU-387: Antiproliferative activity against human SNU-387 cells incubated for 6 days by CellTiter-Glo luminescent cell viability assay
Description for SNU-398: Antiproliferative activity against human SNU-398 cells incubated for 6 days by CellTiter-Glo luminescent cell viability assay
Description for SNU-423: Antiproliferative activity against human SNU-423 cells incubated for 6 days by CellTiter-Glo luminescent cell viability assay

Consider `COc1cc(C(=O)NCCOCCOCCOCC(=O)N[C@H](C(=O)N2C[C@@H](O)C[C@H]2C(=O)NCc2ccc(-c3scnc3C)cc2)C(C)(C)C)ccc1Nc1ncc(C(F)(F)F)c(Oc2cccc3c2C(=O)CC3)n1`, for which, in test [1], the result was inactive.
In the case of `COc1cc(C(=O)NC2CCN(C)CC2)ccc1Nc1ncc(C(F)(F)F)c(Oc2cccc3c2C(=O)CC3)n1`, the IC50 in the test on HepG2 is 3.16 µM; in the test on SNU-423 it was 3.98 µM; with SNU-387, 6.31 µM; in the test with Huh-7 it was 3.98 µM; in the test on HLE, 7.94 µM; in the test with SNU-398, 6.31 µM. In addition, the IC50 in the test “cells [2]” was 3.98 µM; in the test with SK-HEP1, 6.31 µM; in “cells [3]” it was 5.01 µM; in the test on HuCCT-1, 6.31 µM; in “cells [4]”, 3.98 µM.
